Measured values as given in the SangsterLogP compilation.

In the case of CC/C=C\C/C=C\C/C=C\CCCCCCCC(=O)OC, the logP is reported as 6.29. With CCCCCCCCCCCC(=O)OCC the logP was 5.71. In the case of CCCCCCCC/C=C\CCCCCCCCCCCC(=O)OC, the logP is reported as 9.32. For CCCCCCCCCCCCCCCCCCCC(=O)OC, the logP was 9.3. For CCCCCCCCCCCC(=O)OCCCC, the logP was 6.51. CCCCCCCCCCCCCC(=O)OC showed a logP of 6.41. For CCCCCCCCCCCC(=O)OCC(CC)CCCC (stereo not given), the logP was 8.03. Compound CCCCCCCCCCCCCCCCCC(=O)OC has a logP of 8.35. Compound CCCCCCCCCC(=O)OC has a logP of 4.42. Compound CCCCCCCCCCCCCCCC(=O)OC has a logP of 7.38. In the case of CCCCC/C=C\C/C=C\CCCCCCCC(=O)OC, the logP is reported as 6.82. Work on CCCCCCCCCCCCCCCCCCCCCC(=O)OC yielded a logP of 10.2. CCCCCCCCCCCC(=O)OCCC gave a logP of 6.11. For CCCCCCCC/C=C\CCCCCCCC(=O)OC, the logP was 7.45. CCCCCCCCCCCC(=O)OC gave a logP of 5.41.
